Source: US7696148B1, “Administration of products of the 5-lipoxygenase metabolic pathway to enhance antimicrobial defense” (Board of Trustees of Michigan State University, priority 1996, dated 2010)
Where two headings read alike, the source gives them in different places.

Tests used:
[1] = test system: normal rat alveolar macrophages; assay: Phagocytosis of K. pneumoniae by normal rat alveolar macrophages (phagocytic index); assay type: cell-based, Wistar rats
Experimental: (§1) For assays of bacterial phagocytosis and killing, alveolar macrophages were purified from bronchoalveolar lavage cells by adherence for 1 hour in HBSS and studied in monolayer culture. Adherent cells were preincubated with 5% K. pneumoniae-specific immune serum (as a source of both complement and specific opsonizing antibody) for 5 minutes at 37° C. prior to assays. Phagocytosis was studied by incubating 10^5 alveolar macrophages with 10^6 K. pneumoniae in each well of an 8-well Labtek® plate (Nunc) for 1 hour at 37° C.; in some experiments, exogenous LTB4 (Cayman) was added concomitantly with bacteria. The supernatants were aspirated and the cells were washed 3 times with HBSS. The slides were then allowed to air dry, Diff-Quik® (Difco) staining was performed, and 200 cells per well were counted to determine number of intracellular K. pneumoniae and percent of alveolar macrophages containing bacteria. Phagocytic index was calculated as the mean percentage of alveolar macrophages containing bacteria multiplied by the mean number of bacteria per alveolar macrophage.
Alveolar macrophages from Wistar rats were adhered and then incubated for 1 hour with K. pneumoniae alone or in the presence of 1 nM of several 5-LO metabolites (LTB4, LTC4, and 5-HETE). Phagocytic index was subsequently determined as described above in the General Methods.
A related experiment was also performed to determine if the ability of exogenous LTB4 to enhance bacterial phagocytosis is mediated by its interaction with LTB4 receptors. This experiment was based on the fact that pretreatment with LTB4 desensitizes cells to subsequent LTB4 responsiveness; though an understanding of the mechanism of this effect is not required to practice the present invention, the desensitization is believed to occur by down-regulating receptor expression or coupling. For this experiment, cells were pretreated with LTB4 (1 nM) for 1 hour, washed, and incubated with bacteria plus LTB4.

5-LO = target: T1, 5-LO (Mus musculus, UniProt P48999); details: once-daily oral agent; cited from earlier work
T1 construct: from tissue; host or cells: whole animal: wild type mice (129/SvEv, The Jackson Laboratory)
T1 sequence (P48999 1-674): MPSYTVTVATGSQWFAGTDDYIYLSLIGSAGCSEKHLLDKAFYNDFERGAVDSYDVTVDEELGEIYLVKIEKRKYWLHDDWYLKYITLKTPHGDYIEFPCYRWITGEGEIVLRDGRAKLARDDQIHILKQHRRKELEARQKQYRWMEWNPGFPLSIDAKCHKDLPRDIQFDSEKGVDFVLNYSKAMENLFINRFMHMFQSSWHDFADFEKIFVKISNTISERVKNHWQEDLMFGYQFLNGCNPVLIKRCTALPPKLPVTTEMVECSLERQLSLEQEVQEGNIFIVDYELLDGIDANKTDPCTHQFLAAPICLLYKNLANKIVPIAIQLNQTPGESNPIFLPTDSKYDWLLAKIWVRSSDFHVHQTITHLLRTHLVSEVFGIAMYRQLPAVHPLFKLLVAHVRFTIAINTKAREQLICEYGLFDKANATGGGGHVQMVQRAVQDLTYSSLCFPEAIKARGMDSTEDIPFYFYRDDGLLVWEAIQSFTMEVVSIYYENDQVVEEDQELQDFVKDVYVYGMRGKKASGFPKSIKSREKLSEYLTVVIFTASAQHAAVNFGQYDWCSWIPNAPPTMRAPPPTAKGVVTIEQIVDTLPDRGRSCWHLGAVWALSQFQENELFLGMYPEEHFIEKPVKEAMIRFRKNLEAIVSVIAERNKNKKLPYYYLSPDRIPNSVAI

[2] = mice, once-daily oral dose; cited from earlier work
[3] = test system: alveolar macrophages from 5-LO knockout mice; assay: Phagocytosis of K. pneumoniae by alveolar macrophages from 5-LO knockout mice (phagocytic index); assay type: cell-based, mouse; details: 5-LO knockout alveolar macrophages
Experimental: as §1
Cultured alveolar macrophages from knockout mice were incubated in the presence of specific serum for 1 hour with K. pneumoniae alone or in the presence of varying doses of LTB4. Phagocytic index was calculated as described in the General Methods. FIG. 6 graphically depicts the effect of exogenous LTB4 (none, 0.1 nM, and 5 nM LTB4 added) on bacterial phagocytic activity in alveolar macrophages from 5-LO KO mice; each value represents the mean from triplicate cultures. […] Though not required in order to practice the present invention, it is believed that neutrophils manifest similar functional defects in phagocytosis and killing which could contribute to the sensitivity to bacterial pneumonia seen in knockout mice in vivo.

[4] = test system: neutrophils from 5-LO knockout mice; assay: Phagocytosis of K. pneumoniae by glycogen-elicited peritoneal neutrophils from 5-LO knockout mice; assay type: cell-based, mouse; details: 1 nM LTB4, one hour
Experimental: as §1
To obtain peritoneal elicited neutrophils, mice are injected intraperitoneally with 5% glycogen in PBS and peritoneal lavage is performed 5 hours later. Approximately 3×10^6 cells are obtained from each animal, approximately 85-90% of which are neutrophils. These cells are likewise placed into culture for functional studies. […]

K. pneumoniae = assay: Pulmonary bacterial clearance (lung homogenate CFU) after intratracheal K. pneumoniae challenge in 5-LO knockout mice; assay type: in vivo, mouse
Experimental: K. pneumoniae strain 43816, serotype 2 obtained from the ATCC (Assession No. 29939) was grown in tryptic soy broth (Difco) for 18 hours at 37° C. The preparation and intratracheal administration of K. pneumoniae were carried out as described by M. Schneemann et al. [J. Infect. Dis. 167:1358-1363 (1993)]. Bacterial concentration was determined by measuring absorbance at 600 nm and referencing to a standard curve of absorbances vs. known standard CFUs. Bacteria were then pelleted by centrifugation for 30 min at 10,000 rpm, washed ×2 in saline, and resuspended at the desired concentration in saline.
After appropriate dilution of bacteria in endotoxin-free saline, animals were anesthetized with sodium pentobarbital (approximately 0.2 mL diluted 1:7 in saline intraperitoneally) and the trachea was exposed via a small midline incision. […]
Plasma and lung CFU were determined as described by M. Schneemann et al. [J. Infect. […]
LTB4 was administered together with the intratracheal inoculum of K. pneumoniae (50 CFU). […] Second, the present inventors previously found (see FIG. 5) that approximately 7 ng of total LTB4 could be measured in the homogenate of a pair of lungs from Klebsiella-challenged wild type mice. […] Following 24 hours of bacterial inoculation, lungs were harvested and lung homogenate CFUs were determined.

[5] = in vivo bronchoscopic instillation into the human lung; cited from earlier work
peritoneal macrophages = details: cited from earlier work
Schistosoma mansoni = details: neutrophils; cited from earlier work
S. typhimurium = details: intraperitoneal injection; cited from earlier work
[6] = 6 ng intratracheally per animal, 6 hours after administration, mice; cited from earlier work
[7] = administered orally to rats; cited from earlier work
[8] = normal rat alveolar macrophages, 1 nM, 1 hour with K. pneumoniae

Which “effect on phagocytic index” value [1, 8] does the source give for `CCCCC/C=C\C/C=C\C/C=C\C=C\[C@@H](O)CCCC(=O)O` [5-HETE] here?
Its value is “similar, though less pronounced, effect”.

With `C[C@H](C#Cc1ccc(Oc2ccc(F)cc2)o1)N(O)C(N)=O` [A-79175] as the compound, how does the “efficacy in mice” value (5-LO) read?
The value was “demonstrated efficacy in mice”.

For `O=C(O)C1(c2ccc3c(c2)OC[C@H](Cc2ccc(-c4ccccc4)cc2)[C@H]3O)CCCC1` [CP-105,696], which “collagen-induced arthritis” value [2] is on record?
The value was “inhibited collagen-induced arthritis”.

For `CCCCC/C=C\C[C@@H](O)/C=C/C=C/C=C\[C@@H](O)CCCC(=O)O` [LTB4, leukotriene B4], which “phagocytic index relative to baseline level” value ([3]; 5 nM LTB4, 1 hour with K. pneumoniae, specific serum) is on record?
The value was “approximately three”.

And the “increase of phagocytic index” value ([3]; exogenous LTB4)?
The value was “approximately 300%”.

And the “effect on phagocytic index” value ([3]; none, 0.1 nM and 5 nM LTB4)?
Its value is “dose-dependently enhanced the phagocytic index”.

And the phagocytic index [4]?
The phagocytic index was 27±8.

What about the “effect of LTB4 pretreatment on LTB4-augmented phagocytosis” value ([1]; cells pretreated with LTB4 1 nM for 1 hour, washed, then bacteria plus LTB4 1 nM) of the same compound?
The value was “almost completely abrogated”.

What about the “increase in phagocytic index” value [1, 8] of the same compound?
Its value is “approximately 6 fold”.

And the “effect on in vivo bacterial clearance” value (K. pneumoniae; intrapulmonary administration)?
Its value is “partially overcame the in vivo impairment in bacterial clearance”.

And the “reduction of lung CFU” value (K. pneumoniae; single 6 ng intratracheal dose with 50 CFU inoculum, 24 hours)?
The value was “approximately 10 fold”.

And the “neutrophil influx” value [5]?
Its value is “resulted in neutrophil influx”.

And the “in vitro phagocytosis and killing of P. aeruginosa and Salmonella typhimurium” value (peritoneal macrophages)?
Its value is “enhanced the in vitro phagocytosis and killing”.

And the “in vitro killing of Schistosoma mansoni” value (Schistosoma mansoni)?
Its value is “enhanced”.

And the “in vivo clearance of S. typhimurium” value (S. typhimurium)?
Its value is “enhanced the in vivo clearance”.

And the “neutrophil influx” value [6]?
Its value is “brisk neutrophil influx”.

With `CCCCC/C=C\C\C=C/C=C/C=C/[C@@H](SC[C@H](NC(=O)CC[C@H](N)C(=O)O)C(=O)NCC(=O)O)[C@@H](O)CCCC(=O)O` [LTC4, leukotriene C4] as the compound, how does the “effect on phagocytic index” value [1, 8] read?
Its value is “augmented phagocytosis to a degree similar to LTB4”.

Which “antigen-induced bronchoconstriction” value [7] does the source give for `CN(C)C(=O)CCSC(SCCC(=O)O)c1cccc(/C=C/c2ccc3ccc(Cl)cc3n2)c1` (stereo not drawn) [MK-571] here?
The value was “effectively inhibited antigen-induced bronchoconstriction”.
